Here are results for 2 compounds from PMC8213057, “Targeting ALK2: An Open Science Approach to Developing Therapeutics for the Treatment of Diffuse Intrinsic Pontine Glioma” (Journal of Medicinal Chemistry, 2020).

One series addresses T1, CYP2C8 (Homo sapiens, UniProt P10632).
T1 construct: tissue Corning 452117; host or cells: pooled human liver microsomes (UltraPool HLM 150, mixed gender)
Description: CYP inhibition assay. The class given is in vitro ADME. The following applies: human liver microsomes. On the technique in general: Microsomes from liver hold many membrane-bound enzymes, among them those of drug oxidation.

A further series has as its target T2, ARAF (Homo sapiens, UniProt P10398).
T2 sequence (P10398 1-606): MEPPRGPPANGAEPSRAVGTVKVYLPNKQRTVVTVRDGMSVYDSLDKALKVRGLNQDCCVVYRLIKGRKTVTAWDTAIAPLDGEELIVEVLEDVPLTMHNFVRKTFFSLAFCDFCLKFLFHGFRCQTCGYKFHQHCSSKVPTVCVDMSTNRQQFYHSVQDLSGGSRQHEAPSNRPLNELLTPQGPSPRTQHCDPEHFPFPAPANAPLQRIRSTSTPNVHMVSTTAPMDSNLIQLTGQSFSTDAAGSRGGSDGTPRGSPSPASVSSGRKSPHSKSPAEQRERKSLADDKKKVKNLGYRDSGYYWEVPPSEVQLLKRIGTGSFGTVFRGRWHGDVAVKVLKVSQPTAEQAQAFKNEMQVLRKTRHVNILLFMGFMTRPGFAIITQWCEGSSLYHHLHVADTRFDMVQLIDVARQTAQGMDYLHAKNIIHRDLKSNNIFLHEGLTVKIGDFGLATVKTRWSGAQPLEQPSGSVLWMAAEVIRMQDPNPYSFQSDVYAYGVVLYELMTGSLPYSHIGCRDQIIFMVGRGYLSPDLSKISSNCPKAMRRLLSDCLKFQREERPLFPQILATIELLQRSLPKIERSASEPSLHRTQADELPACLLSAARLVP
The following applies: 1 μM; Run 1, Run 2.

In a further series the target is CDK2/cyclin A (Homo sapiens, UniProt P24941). As to conditions: 1 μM; Run 1, Run 2.
In a further series the target is T3, HIPK4 (Homo sapiens, UniProt Q8NE63).
T3 sequence (Q8NE63 1-616): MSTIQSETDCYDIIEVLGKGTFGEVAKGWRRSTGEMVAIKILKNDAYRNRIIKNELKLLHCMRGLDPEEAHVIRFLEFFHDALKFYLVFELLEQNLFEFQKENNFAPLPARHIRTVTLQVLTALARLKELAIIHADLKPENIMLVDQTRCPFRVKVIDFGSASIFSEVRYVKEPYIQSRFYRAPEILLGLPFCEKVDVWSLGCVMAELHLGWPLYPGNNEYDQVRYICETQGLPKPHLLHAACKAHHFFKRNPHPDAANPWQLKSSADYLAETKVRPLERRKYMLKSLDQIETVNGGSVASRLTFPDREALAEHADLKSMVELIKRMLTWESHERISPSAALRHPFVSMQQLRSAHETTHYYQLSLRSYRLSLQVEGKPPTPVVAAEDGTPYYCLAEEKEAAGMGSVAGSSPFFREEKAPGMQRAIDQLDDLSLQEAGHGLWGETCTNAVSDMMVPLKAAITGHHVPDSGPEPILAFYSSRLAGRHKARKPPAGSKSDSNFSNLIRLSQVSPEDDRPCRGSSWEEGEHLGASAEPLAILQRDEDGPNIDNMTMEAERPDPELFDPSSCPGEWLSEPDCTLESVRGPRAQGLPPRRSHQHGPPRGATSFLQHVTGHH
The following applies: 1 μM; Run 1, Run 2.

A further series concerns the target T4, MEKK6 (Homo sapiens, UniProt O95382).
T4 sequence (O95382 1-1288): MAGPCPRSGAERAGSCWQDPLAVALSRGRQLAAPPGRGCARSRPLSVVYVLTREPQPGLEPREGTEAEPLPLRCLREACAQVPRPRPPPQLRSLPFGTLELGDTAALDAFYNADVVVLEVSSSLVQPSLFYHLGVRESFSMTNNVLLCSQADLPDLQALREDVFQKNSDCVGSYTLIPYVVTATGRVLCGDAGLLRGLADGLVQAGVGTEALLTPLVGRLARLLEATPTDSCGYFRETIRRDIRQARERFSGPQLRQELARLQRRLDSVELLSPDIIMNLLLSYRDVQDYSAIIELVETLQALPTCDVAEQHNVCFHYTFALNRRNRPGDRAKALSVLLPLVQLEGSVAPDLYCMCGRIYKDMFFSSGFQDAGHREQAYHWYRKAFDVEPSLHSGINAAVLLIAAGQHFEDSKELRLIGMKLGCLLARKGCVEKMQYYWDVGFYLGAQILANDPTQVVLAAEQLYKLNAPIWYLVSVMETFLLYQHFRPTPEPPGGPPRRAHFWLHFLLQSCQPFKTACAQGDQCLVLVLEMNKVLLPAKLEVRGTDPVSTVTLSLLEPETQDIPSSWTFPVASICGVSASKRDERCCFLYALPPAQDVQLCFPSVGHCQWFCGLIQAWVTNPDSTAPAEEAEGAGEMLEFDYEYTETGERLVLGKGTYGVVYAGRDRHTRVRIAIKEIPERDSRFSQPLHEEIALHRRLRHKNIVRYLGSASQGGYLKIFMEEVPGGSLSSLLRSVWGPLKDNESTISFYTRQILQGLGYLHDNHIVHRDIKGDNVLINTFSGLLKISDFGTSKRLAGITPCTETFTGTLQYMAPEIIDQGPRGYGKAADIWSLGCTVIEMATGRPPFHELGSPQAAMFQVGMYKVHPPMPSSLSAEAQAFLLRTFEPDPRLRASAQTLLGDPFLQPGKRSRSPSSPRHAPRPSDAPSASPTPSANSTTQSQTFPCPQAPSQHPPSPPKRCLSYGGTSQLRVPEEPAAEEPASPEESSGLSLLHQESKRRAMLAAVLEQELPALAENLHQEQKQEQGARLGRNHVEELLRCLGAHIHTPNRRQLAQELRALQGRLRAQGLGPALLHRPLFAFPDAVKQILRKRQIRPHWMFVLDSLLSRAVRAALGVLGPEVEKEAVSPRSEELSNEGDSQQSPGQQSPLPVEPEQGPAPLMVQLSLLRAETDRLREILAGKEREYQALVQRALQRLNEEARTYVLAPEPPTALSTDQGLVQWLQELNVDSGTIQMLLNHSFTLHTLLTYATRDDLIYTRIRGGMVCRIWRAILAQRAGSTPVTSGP
As to conditions: 1 μM; Run 1, Run 2.

A further series concerns the target SSTK/TSSK6 (Homo sapiens, UniProt Q9BXA6). The following applies: 1 μM; Run 1, Run 2.
The next series addresses STK33 (Homo sapiens, UniProt Q9BYT3). As to conditions: 1 μM; Run 1, Run 2.
Another series addresses VRK2 (Homo sapiens, UniProt Q86Y07). The following applies: 1 μM; Run 1, Run 2.
The target of the next series is BLK (Homo sapiens, UniProt P51451). The series is described as follows: biochemical. The following applies: read-out: % enzyme activity, 1 μM; Run 1, Run 2.
BLK, sequence (P51451 whole entry): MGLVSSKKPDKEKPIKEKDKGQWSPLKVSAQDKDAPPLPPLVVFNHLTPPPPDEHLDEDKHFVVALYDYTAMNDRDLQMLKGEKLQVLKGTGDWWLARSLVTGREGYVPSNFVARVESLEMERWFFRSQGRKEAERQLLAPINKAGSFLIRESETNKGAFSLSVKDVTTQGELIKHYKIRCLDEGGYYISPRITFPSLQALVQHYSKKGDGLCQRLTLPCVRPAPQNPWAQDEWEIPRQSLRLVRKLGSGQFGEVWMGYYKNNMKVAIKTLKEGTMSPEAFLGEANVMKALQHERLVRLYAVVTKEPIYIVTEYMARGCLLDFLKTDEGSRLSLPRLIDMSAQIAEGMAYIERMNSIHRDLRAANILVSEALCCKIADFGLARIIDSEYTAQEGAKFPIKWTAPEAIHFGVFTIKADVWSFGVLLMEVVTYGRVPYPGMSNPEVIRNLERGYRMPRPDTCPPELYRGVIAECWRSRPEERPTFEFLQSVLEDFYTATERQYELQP

A value given as a limit tells only on which side of the number the result lay.

T1 sequence (P10632 whole entry): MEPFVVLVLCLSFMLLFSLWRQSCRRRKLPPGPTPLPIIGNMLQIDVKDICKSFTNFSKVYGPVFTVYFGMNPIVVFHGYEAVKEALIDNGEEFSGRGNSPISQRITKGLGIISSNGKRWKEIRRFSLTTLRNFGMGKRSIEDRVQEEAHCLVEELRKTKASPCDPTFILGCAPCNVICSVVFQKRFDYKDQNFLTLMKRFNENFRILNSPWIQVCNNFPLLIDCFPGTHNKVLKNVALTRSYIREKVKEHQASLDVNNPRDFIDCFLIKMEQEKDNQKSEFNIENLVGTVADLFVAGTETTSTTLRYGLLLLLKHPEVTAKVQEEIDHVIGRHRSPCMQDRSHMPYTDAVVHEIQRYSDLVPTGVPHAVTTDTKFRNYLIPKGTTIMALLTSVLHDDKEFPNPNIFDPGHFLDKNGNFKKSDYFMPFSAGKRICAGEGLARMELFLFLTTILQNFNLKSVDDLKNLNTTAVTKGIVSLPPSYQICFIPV
SSTK/TSSK6, sequence (Q9BXA6 whole entry): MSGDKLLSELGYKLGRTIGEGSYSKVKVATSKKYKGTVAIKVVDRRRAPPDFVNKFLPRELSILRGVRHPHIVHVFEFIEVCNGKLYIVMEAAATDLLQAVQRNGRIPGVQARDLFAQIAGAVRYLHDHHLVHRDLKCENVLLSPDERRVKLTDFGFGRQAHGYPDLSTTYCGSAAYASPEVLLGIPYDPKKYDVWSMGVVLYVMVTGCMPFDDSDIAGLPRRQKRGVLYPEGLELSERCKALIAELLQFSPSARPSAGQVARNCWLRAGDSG
STK33, sequence (Q9BYT3 whole entry): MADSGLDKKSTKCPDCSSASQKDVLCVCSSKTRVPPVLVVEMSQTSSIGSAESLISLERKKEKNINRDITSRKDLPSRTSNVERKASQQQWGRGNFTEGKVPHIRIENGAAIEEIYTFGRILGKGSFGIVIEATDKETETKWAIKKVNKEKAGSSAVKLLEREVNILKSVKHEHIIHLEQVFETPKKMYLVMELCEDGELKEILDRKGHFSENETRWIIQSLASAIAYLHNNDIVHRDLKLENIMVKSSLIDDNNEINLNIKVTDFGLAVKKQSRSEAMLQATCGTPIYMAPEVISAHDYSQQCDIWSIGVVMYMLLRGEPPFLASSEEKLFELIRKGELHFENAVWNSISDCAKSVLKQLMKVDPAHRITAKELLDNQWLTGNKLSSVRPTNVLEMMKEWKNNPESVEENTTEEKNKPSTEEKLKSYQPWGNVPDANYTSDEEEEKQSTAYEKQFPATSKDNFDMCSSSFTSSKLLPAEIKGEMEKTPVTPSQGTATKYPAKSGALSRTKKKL
VRK2, sequence (Q86Y07 whole entry, species assumed): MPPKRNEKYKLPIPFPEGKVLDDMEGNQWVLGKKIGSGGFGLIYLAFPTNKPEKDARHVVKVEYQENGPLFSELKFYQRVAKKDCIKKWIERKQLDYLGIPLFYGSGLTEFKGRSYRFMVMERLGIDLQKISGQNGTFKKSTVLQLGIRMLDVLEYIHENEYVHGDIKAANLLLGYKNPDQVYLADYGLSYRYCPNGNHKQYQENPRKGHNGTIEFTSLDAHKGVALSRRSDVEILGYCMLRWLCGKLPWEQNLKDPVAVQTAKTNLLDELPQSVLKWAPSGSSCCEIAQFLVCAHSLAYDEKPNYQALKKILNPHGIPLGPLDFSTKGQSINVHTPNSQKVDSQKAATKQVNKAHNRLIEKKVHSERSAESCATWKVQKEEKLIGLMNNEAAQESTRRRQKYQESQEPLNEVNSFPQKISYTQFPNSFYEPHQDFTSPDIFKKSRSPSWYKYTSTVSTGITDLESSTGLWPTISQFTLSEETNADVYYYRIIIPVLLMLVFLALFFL

Turning to `COc1cc(-c2cncc(-c3ccc(N4C[C@@H](C)N(C)[C@@H](C)C4)cc3)c2C)cc(F)c1C(N)=O` [Compound 26c, 2-Fluoro-6-methoxy-4-(4-methyl-5-(4-((3R,5S)-3,4,5-trimethylpiperazin-1-yl)phenyl)pyridin-3-yl)benzamide], the hERG inhibition in the series with hERG came to 18.8 µM. The 50% inhibitory concentration (IC50) (in general, the point on the concentration scale where inhibition reaches its midpoint) against CYP2C8 was greater than 50 µM. Moreover, the “% enzyme activity” value at ARAF was determined as 43.32%; at CDK2/cyclin A, 98.65%; at HIPK4, 97.53%; on MEKK6 it was 95.16%; at SSTK/TSSK6, 98.04%; at STK33 it was 96.94%. Moreover, the “% enzyme activity” value at VRK2 came to 89.63%. Also, on BLK, the remaining activity at 1 µM was 104%.
Take `COc1cc(-c2cncc(-c3ccc(N4CCN(C)CC4)cc3)c2C)cc(F)c1C(N)=O` [Compound 26a, 2-Fluoro-6-methoxy-4-(4-methyl-5-(4-(4-methylpiperazin-1-yl)phenyl)pyridin-3-yl)benzamide]: the IC50 in the series with hERG is greater than 30 µM; at CYP2C8, greater than 50 µM. For the same compound, the hERG inhibition with hERG was greater than 30 µM. The “% enzyme activity” value at ARAF is reported as 28.83%; on CDK2/cyclin A it was 97.95%; at HIPK4, 102.90%; at MEKK6, 96.75%; at SSTK/TSSK6, 107.86%; on STK33 it was 88.77%. Moreover, the “% enzyme activity” value on VRK2 worked out at 87.47%. The remaining activity at 1 µM on BLK worked out at 97.2%.
